Laboratory results as given in ChEMBL document CHEMBL1201862, “PubChem BioAssay data set” (2004).
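Five compound concentrations were applied to cells in 96-well plates for 48 hours; endpoints were derived by simple linear interpolation of the resulting dose-response curve. GI50 marks 50% less growth.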 Activity calls are given as the source filed them. No stated cut-off is given here; in the data, active = GI50 up to about 1.1 µM and inactive = higher.

Key:
Experiment in all cases: NCI anticancer screen, dose series, 48 h
[1] = system: U-251
[2] = system: CAKI-1
[3] = system: SK-OV-3
[4] = system: HT-29
[5] = system: SF-268
[6] = system: DMS-273
[7] = system: TK-10
[8] = system: M19-MEL
[9] = system: ACHN
[10] = system: EKVX
[11] = system: 786-0
[12] = system: SR
[13] = system: OVCAR-4
[14] = system: NCI-H522
[15] = system: RXF 393
[16] = system: HCC 2998
[17] = system: IGROV-1
[18] = system: COLO 205
[19] = system: NCI-H460
[20] = system: HOP-92
[21] = system: HL-60
[22] = system: SNB-75
[23] = system: SNB-78
[24] = system: LOX IMVI
[25] = system: KM-20L2
[26] = system: SF-539
[27] = system: SK-MEL-28
[28] = system: Malme-3M
[29] = system: NCI-H226
[30] = system: K562
[31] = system: SF-295
[32] = system: HCT-116
[33] = system: OVCAR-3
[34] = system: UACC-257
[35] = system: DLD-1
[36] = system: SK-MEL-5
[37] = system: OVCAR-8
[38] = system: NCI-H23
[39] = system: CCRF-CEM
[40] = system: A498
[41] = system: SN12C
[42] = system: XF498
[43] = system: SW-620
[44] = system: M14
[45] = system: LXFL 529
[46] = system: SNB-19
[47] = system: HOP-18
[48] = system: UACC-62
[49] = system: A549
[50] = system: MOLT-4
[51] = system: HOP-62
[52] = system: SK-MEL-2
[53] = system: RPMI-8226
[54] = system: OVCAR-5
[55] = system: HCT-15
[56] = system: DMS-114
[57] = system: KM12
[58] = system: UO-31
[59] = system: RXF 631

For `N=C(NNS(=O)(=O)c1ccccc1)Oc1ccc(Cl)cc1`, the GI50 [1] was 60.3 µM (inactive), the GI50 [2] was > 100 µM (inactive) and the GI50 [3] was > 100 µM (inactive). For the same compound, the GI50 [4] was > 100 µM (inactive), the GI50 [5] was > 100 µM (inactive) and the GI50 [6] was > 100 µM (inactive). For the same compound, the GI50 [7] was > 100 µM (inactive), the GI50 [8] was > 100 µM (inactive) and the GI50 [9] was > 100 µM (inactive). The GI50 [10] was > 100 µM (inactive), the GI50 [11] was 44.3 µM (inactive) and the GI50 [12] was 43.1 µM (inactive). For the same compound, the GI50 [13] was > 100 µM (inactive), the GI50 [14] was > 100 µM (inactive) and the GI50 [15] was 11.3 µM (inactive). The GI50 [16] was > 100 µM (inactive), the GI50 [17] was > 100 µM (inactive) and the GI50 [18] was 35.4 µM (inactive). The GI50 [19] was > 100 µM (inactive), the GI50 [20] was > 100 µM (inactive) and the GI50 [21] was 21.1 µM (inactive). For the same compound, the GI50 [22] was > 100 µM (inactive), the GI50 [23] was > 100 µM (inactive) and the GI50 [24] was 48.3 µM (inactive). The GI50 [25] was > 100 µM (inactive), the GI50 [26] was > 100 µM (inactive) and the GI50 [27] was > 100 µM (inactive). For the same compound, the GI50 [28] was > 100 µM (inactive), the GI50 [29] was > 100 µM (inactive) and the GI50 [30] was 24.8 µM (inactive). The GI50 [31] was > 100 µM (inactive), the GI50 [32] was 65.8 µM (inactive) and the GI50 [33] was 78.5 µM (inactive). The GI50 [34] was > 100 µM (inactive), the GI50 [35] was 90.2 µM (inactive) and the GI50 [36] was > 100 µM (inactive). For the same compound, the GI50 [37] was > 100 µM (inactive), the GI50 [38] was > 100 µM (inactive) and the GI50 [39] was 38.3 µM (inactive). The GI50 [40] was > 100 µM (inactive), the GI50 [41] was > 100 µM (inactive) and the GI50 [42] was > 100 µM (inactive). The GI50 [43] was 5.75 µM (inactive), the GI50 [44] was > 100 µM (inactive) and the GI50 [45] was 51.9 µM (inactive). For the same compound, the GI50 [46] was > 100 µM (inactive), the GI50 [47] was > 100 µM (inactive) and the GI50 [48] was 59.8 µM (inactive). The GI50 [49] was > 100 µM (inactive), the GI50 [50] was 68.5 µM (inactive) and the GI50 [51] was > 100 µM (inactive). For the same compound, the GI50 [52] was > 100 µM (inactive), the GI50 [53] was 70.1 µM (inactive) and the GI50 [54] was > 100 µM (inactive). For the same compound, the GI50 [55] was 33.1 µM, the GI50 [56] was 69.5 µM (inactive) and the GI50 [57] was > 100 µM (inactive). For the same compound, the GI50 [58] was > 100 µM (inactive).
In the case of `O=C1C(c2ccc([N+](=O)[O-])cc2)=[N+]([O-])c2ccc([N+](=O)[O-])cc21`, the GI50 [1] is reported as 49.9 µM (inactive), the GI50 [3] is reported as 36.4 µM (inactive) and the GI50 [4] is reported as 73.1 µM (inactive). The GI50 [5] was 40.8 µM (inactive), the GI50 [6] was 69.7 µM (inactive) and the GI50 [7] was 77.8 µM (inactive). The GI50 [8] was 27.6 µM (inactive), the GI50 [9] was 32.2 µM (inactive) and the GI50 [10] was > 100 µM (inactive). For the same compound, the GI50 [11] was > 100 µM (inactive), the GI50 [12] was 35.1 µM (inactive) and the GI50 [13] was 28.1 µM (inactive). For the same compound, the GI50 [15] was 56.4 µM (inactive), the GI50 [17] was 26.4 µM (inactive) and the GI50 [18] was 35.3 µM (inactive). For the same compound, the GI50 [59] was 35.6 µM (inactive), the GI50 [19] was > 100 µM (inactive) and the GI50 [21] was 19.5 µM (inactive). The GI50 [22] was 62.1 µM (inactive), the GI50 [23] was 79.8 µM (inactive) and the GI50 [24] was 46.5 µM (inactive). For the same compound, the GI50 [26] was 52.1 µM (inactive), the GI50 [27] was > 100 µM (inactive) and the GI50 [29] was 37.2 µM (inactive). The GI50 [30] was 27.7 µM (inactive), the GI50 [31] was 56.1 µM (inactive) and the GI50 [33] was 17.3 µM (inactive). For the same compound, the GI50 [35] was 33.4 µM (inactive), the GI50 [36] was 30.8 µM (inactive) and the GI50 [37] was 29.3 µM (inactive). The GI50 [38] was 33.8 µM (inactive), the GI50 [39] was 24.2 µM (inactive) and the GI50 [43] was 39.4 µM (inactive). For the same compound, the GI50 [44] was 96.2 µM (inactive), the GI50 [45] was 28.4 µM (inactive) and the GI50 [46] was 98.6 µM (inactive). The GI50 [47] was 54.8 µM (inactive), the GI50 [48] was 21 µM (inactive) and the GI50 [49] was 37.8 µM (inactive). The GI50 [50] was 27 µM (inactive), the GI50 [53] was 15.5 µM (inactive) and the GI50 [54] was > 100 µM (inactive). For the same compound, the GI50 [56] was 30.1 µM (inactive), the GI50 [57] was 74 µM (inactive) and the GI50 [58] was 48.9 µM (inactive).
With `CC(C)(Br)C1(O)CCCN1C(=O)c1ccccc1` (centres undefined) the GI50 [1] was > 100 µM (inactive), the GI50 [3] was > 100 µM (inactive) and the GI50 [4] was > 100 µM (inactive). For the same compound, the GI50 [5] was > 100 µM (inactive), the GI50 [6] was > 100 µM (inactive) and the GI50 [7] was > 100 µM (inactive). For the same compound, the GI50 [8] was > 100 µM (inactive), the GI50 [9] was > 100 µM (inactive) and the GI50 [10] was > 100 µM (inactive). For the same compound, the GI50 [12] was > 100 µM (inactive), the GI50 [14] was > 100 µM (inactive) and the GI50 [15] was > 100 µM (inactive). The GI50 [16] was > 100 µM (inactive), the GI50 [17] was > 100 µM (inactive) and the GI50 [18] was > 100 µM (inactive). For the same compound, the GI50 [59] was > 100 µM (inactive), the GI50 [19] was > 100 µM (inactive) and the GI50 [20] was > 100 µM (inactive). The GI50 [21] was > 100 µM (inactive), the GI50 [22] was 97.5 µM (inactive) and the GI50 [23] was > 100 µM (inactive). For the same compound, the GI50 [24] was > 100 µM (inactive), the GI50 [25] was > 100 µM (inactive) and the GI50 [26] was > 100 µM (inactive). For the same compound, the GI50 [27] was > 100 µM (inactive), the GI50 [28] was > 100 µM (inactive) and the GI50 [30] was 33 µM (inactive). The GI50 [31] was 25.1 µM (inactive), the GI50 [32] was > 100 µM (inactive) and the GI50 [33] was > 100 µM (inactive). The GI50 [34] was > 100 µM (inactive), the GI50 [35] was > 100 µM (inactive) and the GI50 [36] was > 100 µM (inactive). For the same compound, the GI50 [37] was > 100 µM (inactive), the GI50 [38] was > 100 µM (inactive) and the GI50 [39] was > 100 µM (inactive). For the same compound, the GI50 [40] was > 100 µM (inactive), the GI50 [41] was > 100 µM (inactive) and the GI50 [43] was > 100 µM (inactive). The GI50 [44] was > 100 µM (inactive), the GI50 [45] was > 100 µM (inactive) and the GI50 [46] was > 100 µM (inactive). For the same compound, the GI50 [47] was > 100 µM (inactive), the GI50 [48] was > 100 µM (inactive) and the GI50 [49] was > 100 µM (inactive). For the same compound, the GI50 [50] was > 100 µM (inactive), the GI50 [52] was > 100 µM (inactive) and the GI50 [54] was > 100 µM (inactive). For the same compound, the GI50 [55] was greater than 100 µM, the GI50 [57] was > 100 µM (inactive) and the GI50 [58] was > 100 µM (inactive).
